Activity calls are given as the source filed them. The rule behind the calls is not given here.
How the values were obtained:
Mushroom tyrosinase [1] = biological target: T1, Mushroom tyrosinase (Agaricus bisporus, UniProt O42713+Q00024+C7FF04+C7FF05); assay: Inhibition of mushroom tyrosinase using L-DOPA as substrate incubated for 30 mins by microplate reader assay; format: protein assay
Mushroom tyrosinase [2] = biological target: T1, Mushroom tyrosinase; assay: Inhibition of mushroom tyrosinase using L-tyrosine as substrate incubated for 30 mins by microplate reader assay; format: protein assay
[3] = Antioxidant activity assessed as ABTS radical scavenging activity at 100 uM measured at 1 min interval for 10 mins by microplate reader analysis; format: functional
[4] = Antioxidant activity assessed as DPPH radical scavenging activity at 500 uM incubated for 30 mins under dark condition by microplate reader assay; format: functional
[5] = Antioxidant activity assessed as ROS scavenging activity at 40 uM incubated for 30 mins under dark condition in presence of SIN-1 by microplate reader assay; format: functional
[6] = biological target: T2, Mushroom tyrosinase (Agaricus bisporus) (UniProt O42713+Q00024+C7FF04+C7FF05); assay: Competitive inhibition of mushroom tyrosinase assessed as increase in Km with constant Vmax at 25 to 100 uM using varying levels of L-DOPA as substrate by Lineweaver-Burk plot analysis; format: protein assay; conditions: dose 25-100 µM
Mushroom tyrosinase [7] = biological target: T1, Mushroom tyrosinase; assay: Inhibition of mushroom tyrosinase using varying levels of L-DOPA as substrate by Dixon plot analysis; format: protein assay
B16-F10 [8] = assay: Antimelanogenic activity against IBMX/[…] stimulated mouse B16-F10 cells assessed as reduction in intracellular melanin production preincubated for 1 hr followed by IBMX/[…] addition and measured after 72 hrs by microplate reader assay; format: functional, cell-based; conditions: dose 5-20 µM, time 73.0 hrs
[9] = biological target: T3, Tyrosinase (Mus musculus) (UniProt P11344); assay: Inhibition of tyrosinase activity in IBMX/[…] stimulated mouse B16-F10 cells preincubated for 1 hr followed by IBMX/[…] addition and measured after 72 hrs by microplate reader assay; format: cell-based; conditions: dose 5-20 µM, time 73.0 hrs
T3 sequence (whole entry): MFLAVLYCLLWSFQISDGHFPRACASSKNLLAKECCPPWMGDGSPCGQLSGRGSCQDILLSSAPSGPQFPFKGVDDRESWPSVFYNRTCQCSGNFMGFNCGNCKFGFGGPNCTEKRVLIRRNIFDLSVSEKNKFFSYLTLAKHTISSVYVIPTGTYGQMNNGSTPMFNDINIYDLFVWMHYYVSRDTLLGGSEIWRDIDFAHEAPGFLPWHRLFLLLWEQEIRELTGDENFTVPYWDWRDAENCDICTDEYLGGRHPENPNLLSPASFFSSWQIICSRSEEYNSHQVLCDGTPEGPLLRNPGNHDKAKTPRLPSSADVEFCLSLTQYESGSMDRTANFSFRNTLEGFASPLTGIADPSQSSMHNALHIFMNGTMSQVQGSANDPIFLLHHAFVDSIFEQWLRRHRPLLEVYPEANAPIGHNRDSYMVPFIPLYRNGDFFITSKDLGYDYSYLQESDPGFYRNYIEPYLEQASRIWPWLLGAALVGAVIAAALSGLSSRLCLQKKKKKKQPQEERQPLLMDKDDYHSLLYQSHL

B16-F10 [10] = assay: Cytotoxicity against mouse B16-F10 cells upto 20 uM incubated for 72 hrs by EZ-Cytox method; format: toxicity, cell-based; conditions: b16-f10, 72 h
[11] = biological target: T2, Mushroom tyrosinase (Agaricus bisporus); assay: Potency index, ratio of kojic acid IC50 to test compound IC50 for inhibition of mushroom tyrosinase using L-Tyrosine as substrate; format: protein assay
[12] = biological target: T2, Mushroom tyrosinase (Agaricus bisporus); assay: Potency index, ratio of kojic acid IC50 to test compound IC50 for inhibition of mushroom tyrosinase using L-Dopa as substrate; format: protein assay
[13] = biological target: T2, Mushroom tyrosinase (Agaricus bisporus); assay: Mixed type inhibition of mushroom tyrosinase at 3 to 12 uM using varying levels of L-DOPA as substrate by Lineweaver-Burk plot analysis; format: protein assay; conditions: dose 3-12 µM

Row | SMILES | IC50 (Mushroom tyrosinase [1]) [µM] | IC50 (Mushroom tyrosinase [2]) [µM] | Activity [3] | Activity [4] | Activity [5] | inhibition [6] | Ki (Mushroom tyrosinase [7]) [µM] | Activity (B16-F10 [8]) | inhibition [9] | Activity (B16-F10 [10]) | Ratio IC50 [11] | Ratio IC50 [12] | inhibition [13]
1 | COc1ccc(CNC2=NC(=O)/C(=C/c3cc(C(C)(C)C)c(O)c(C(C)(C)C)c3)S2)cc1 | 100.9 | > 200 | 41% | > 80% | inactive |  |  |  |  |  |  |  | 
2 | COc1ccc(CNC2=NC(=O)/C(=C/c3ccc(O)c(O)c3)S2)cc1 | 105.1 | > 200 | 75% | 100% | Active |  |  |  |  |  |  |  | 
3 | COc1ccc(CNC2=NC(=O)/C(=C/c3ccc(O)c(OC)c3)S2)cc1 | 78.1 | 29.4 | 41% | 93% | inactive |  |  |  |  |  |  |  | 
4 | COc1ccc(CNC2=NC(=O)/C(=C/c3ccc(OC)c(O)c3)S2)cc1 | 13 | 107.9 | 41% |  | inactive | Active | 65.83 | Dose-Dependent Effect | Dose-Dependent Effect | Non-Toxic |  |  | 
5 | COc1ccc(CNC2=NC(=O)/C(=C/c3ccc(OC)cc3OC)S2)cc1 | 146.4 | > 200 | inactive | inactive | Active |  |  |  |  |  |  |  | 
6 | COc1ccc(CNC2=NC(=O)/C(=C/c3ccc(O)cc3)S2)cc1 | 29.2 | > 200 |  | inactive |  |  |  |  |  |  |  |  | 
7 | COc1ccc(CNC2=NC(=O)/C(=C/c3ccc(OC)c(OC)c3)S2)cc1 | 136 | > 200 | inactive | inactive | Active |  |  |  |  |  |  |  | 
8 | COc1ccc(CNC2=NC(=O)/C(=C/c3ccc(O)cc3O)S2)cc1 | 0.4 | 2.1 | 90% | > 80% | inactive |  | 1.1 | Dose-Dependent Effect | Dose-Dependent Effect | Non-Toxic | 26 | 19 | Active
9 | Cc1c(C)c2c(c(C)c1O)CCC(C)(C(=O)O)O2 (stereo unspecified) |  |  | 99.9% |  | Active |  |  |  |  |  |  |  | 
10 | COc1ccc(CNC2=NC(=O)/C(=C/c3cc(OC)c(OC)c(OC)c3)S2)cc1 | > 200 | > 200 | inactive | inactive | Active |  |  |  |  |  |  |  | 
11 | COc1ccc(/C=C2\SC(NCc3ccc(OC)cc3)=NC2=O)cc1 | > 200 | > 200 | inactive | inactive | Active |  |  |  |  |  |  |  | 
12 | O=C1O[C@H]([C@@H](O)CO)C(O)=C1O |  |  |  | 96% |  |  |  |  |  |  |  |  | 
13 | COc1ccc(CNC2=NC(=O)/C(=C/c3ccc(F)c(F)c3)S2)cc1 | 79.5 | > 200 | inactive | inactive | inactive |  |  |  |  |  |  |  | 
14 | COc1ccc(CNC2=NC(=O)/C(=C/c3ccc(F)cc3F)S2)cc1 | 179.2 | > 200 | inactive | inactive | inactive |  |  |  |  |  |  |  | 
15 | CCOc1cc(/C=C2\SC(NCc3ccc(OC)cc3)=NC2=O)ccc1O | 98.5 | 174.2 | 41% | > 80% | inactive |  |  |  |  |  |  |  | 
16 | COc1ccc(CNC2=NC(=O)/C(=C/c3cc(OC)c(O)c(OC)c3)S2)cc1 | > 200 | > 200 | 41% |  | inactive |  |  |  |  |  |  |  | 

From ChEMBL document CHEMBL5523672, “Thiazol-4(5H)-one analogs as potent tyrosinase inhibitors: Synthesis, tyrosinase inhibition, antimelanogenic effect, antioxidant activity, and in silico docking simulation” (Bioorg Med Chem, 2024)
